Entries after “also recorded” stand apart in the source; their conditions may differ.
Columns and labels:
[1] = test system: ira2Δ yeast (NF1 deficient yeast); assay: Yeast growth inhibition (dose response) assay, OD600; type: cell-based, Saccharomyces cerevisiae; details: isogenic yeast system; 0 to 100 μM, 18 h
Source text: A high-throughput screen was used to identify compounds that are synthetically lethal with NF1 loss (14). A synthetic lethal interaction occurs when loss of two genes due to genetic deletion or pharmacologic inhibition is nonlethal independently but is lethal in combination (FIG. 1) (17). The first gene lost is NF1, and the loss of the second gene is mimicked through treatment with the screened compounds. The screen used Saccharomyces cerevisiae lacking IRA2 (ira2Δ), a yeast homologue of NF1, as a model for NF1 loss. ira2Δ yeast have increased RAS-GTP, which in turn activates MAPK and PKA pathways that mimic the pathways that are increased in NF1 deficient Schwann cells (18). […]
Candidate compounds were screened in ira2Δ yeast cells to identify target compounds synthetically lethal to NF1 loss. Growth inhibition of yeast was measured using the optical density of yeast cultures treated with compounds compared to DMSO control (14).
Growth inhibition assays as described above were performed on ira2Δ yeast cells and NF1-deficient glioblastoma cells. […] Following 18 h treatment, OD600 was measured using a THERMOmax (Molecular Devices) microplate reader and SOFTmax Pro 4.3 LS software. […] AlamarBlue fluorescence was determined with a Spectramax M2 (Molecular Devices) plate reader at an excitation of 544 nm and an emission of 590 nm using SoftMax Pro 3 software. […]

[2] = test system: p62 and LC3B protein expression in U87-MG cells; assay: Western blot of autophagy markers p62 and LC3B; type: cell-based, human
Source text: Ras dysregulated tumors depend on autophagy to remove damaged mitochondria and allow for their survival. […] LC3B I is lipidated to form LC3B II following induction of autophagy. LC3B II is recruited and subsequently integrated into the autophagosome. p62 functions as an adaptor protein in autophagy by binding to both ubiquitin-labeled damaged cargo such as protein aggregates or mitochondria and LC3B II to facilitate cargo uptake into the autophagosome. Degradation of the cargo occurs when the autophagosome fuses with the lysosome; when autophagy is inhibited with hydroxychloroquine (HCQ), a drug that prevents acidification of the lysosome, both LC3B II and p62 accumulate as derogation of the autophagosome is prevented, making them valuable markers of autophagic flux.
The data for FIG. 4 was obtained as follows: U87-MG cells were plated in 6-well plates at a concentration of 500,000 cells/well and allowed to adhere overnight. Cells were treated for 12 h with either DMSO or 2 μM Y102, followed by an additional 12 h co-treatment with or without 50 μM HCQ. Following treatment, cells were harvested using 0.25% trypsin, rinsed with PBS, and lysed with 75 μL modified RIPA buffer (50 mM NaCl, 1% v/v nonidet P40, 0.5% w/v sodium deoxycholate, 0.05% w/v sodium dodecyl sulfate, 50 mM Tris pH 8.0) containing 1 mM NaVO4, 1 mM NaF, 1 mM phenylmethylsulfonyl fluoride, 0.1 μg/mL leupeptin, 100 μM benzamidine HCl, 1 μM aprotinin, 0.1 μg/mL soybean trypsin inhibitor, 0.1 μg/mL pepstatin, and 0.1 μg/mL antipain. Protein was quantified using a BCA assay kit (Pierce). 40 μg of protein prepared in 1× Laemmli sample buffer (50 mM Tris pH 6.8, 0.02% w/v bromophenol blue, 2% w/v sodium dodecyl sulfate, 10% v/v glycerol, 1% v/v beta-mercaptoethanol, 12.5 mM EDTA) was separated on a 4-15% polyacrylamide gel using sodium dodecyl sulfate-polyacrylamide gel electrophoresis. Protein was transferred to nitrocellulose membrane, blocked in 5% nonfat milk in TBST, and probed with primary antibodies anti-LC3BI/II (Cell Signaling, 1:1000, overnight at 4° C.), anti-p62/SQSTM-1 D-3 (Santa Cruz, 1:1000, 1 h at room temperature), or anti-α-tubulin B-1-2-5 (Santa Cruz, 1:10000, 1 h at room temperature) in 2% nonfat milk in TBST. Blots were incubated in 1:20,000 anti-rabbit HRP or 1:10,000 anti-mouse HRP secondary antibodies diluted in 2% nonfat milk in TBST for 1 h at room temperature. Film was exposed to standard ECL (Pierce)-coated blots and developed using a standard film processor.

U251-MG = assay: Glioblastoma cell growth, Alamar Blue, 3 or 7 days; type: cell-based, human; details: 3.9×10^-8 M to 2×10^-5 M
Protocol: (§1) 1000 cells in logarithmic phase were seeded per well (96 well plates) on day zero. The cells were treated for either 3 (red) or 7 (blue) days at a concentration range between 3.9×10^-8 M and 2×10^-5 M. Growth was assayed by the Alamar Blue method.

U-87-MG = assay: Glioblastoma cell growth, Alamar Blue, 3 or 7 days; type: cell-based, human; details: 3.9×10^-8 M to 2×10^-5 M
Protocol: as §1

U87-MG cells [3] = assay: U87-MG viability with NAC pretreatment, alamarBlue; type: cell-based, human; details: 2 hour pretreatment with 5 mM NAC, then 72 hours Y102
Protocol: The data for FIG. 6 was obtained as follows: U87-MG cells were plated at a concentration of 5,000 cells/well into 96-well plates and allowed to adhere overnight. The following day, cells were pretreated with 5 mM N-acetyl cysteine (NAC) or the equivalent volume of DMSO 2 h prior to treatment with Y102 at concentrations ranging from 0 to 20 μM for 72 h. Three hours prior to collection, alamarBlue (Thermo Scientific) was added to a final concentration of 5% v/v. AlamarBlue fluorescence was determined with a Spectramax M2 (Molecular Devices) plate reader at an excitation of 544 nm and an emission of 590 nm using SoftMax Pro 3 software. Results were plotted as a percentage compared to DMSO control using GraphPad Prism software (FIG. 6).

U87-MG cells [4] = assay: U87-MG cell viability, alamarBlue, washout; type: cell-based, human; details: 2 hour treatment then washout compared to 72 hour treatment; 0 to 20 μM
Protocol: Growth inhibition assays as described above were performed on ira2Δ yeast cells and NF1-deficient glioblastoma cells. Log-phase yeast were grown at 30° C. starting at an OD600 of 0.05 in 96-well plates with Y102 at concentrations ranging from 0 to 100 μM. Following 18 h treatment, OD600 was measured using a THERMOmax (Molecular Devices) microplate reader and SOFTmax Pro 4.3 LS software. Results were plotted as a percentage compared to DMSO control using GraphPad Prism software. Graph represents an average of three experiments with four technical replicates per experiment (FIG. 2A). In a similar experiment U87-MG cells were plated at a concentration of 5,000 cells/well into 96-well plates and allowed to adhere overnight. The following day, cells were treated with Y102 at concentrations ranging from 0 to 20 μM for up to 72 h. For treatments less than 72 h, treatment media was removed at the indicated time points and replaced with normal growth medium. Three hours prior to collection, alamarBlue (Thermo Scientific) was added to a final concentration of 5% v/v. AlamarBlue fluorescence was determined with a Spectramax M2 (Molecular Devices) plate reader at an excitation of 544 nm and an emission of 590 nm using SoftMax Pro 3 software. Results were plotted as a percentage compared to DMSO control using GraphPad Prism software (FIG. 2B). […]

Cn1cnnc1S/C=C/C(=O)c1ccc(F)cc1 [Y102]
sensitivity of NF1 deficient yeast (growth) [1]: selectively sensitive | LC3B I/II conversion (LC3B II accumulation) ([2]; 12 hours Y102 followed by 12 hours HCQ co-treatment): LC3B II accumulation occurred, but not as robustly as with HCQ alone; also recorded: LC3B I/II conversion was seen | p62 accumulation (autophagy marker) ([2]; U87-MG, Western blot, 24 hours, 2 μM Y102, 50 μM HCQ): accumulation of the autophagy marker p62 | LC3B I/II conversion (LC3B II accumulation) ([2]; U87-MG, Western blot, single agent, 2 μM Y102, 50 μM HCQ): not found to accumulate; also recorded: not LC3B I/II conversion | sensitivity of U251-MG (growth) (U251-MG): sensitive | sensitivity of U-87-MG (growth) (U-87-MG): sensitive | sensitivity to Y102 after NAC pretreatment (U87-MG cells [3]): reversed sensitivity to Y102; also recorded: rescued | reversibility of effect on U87-MG cell viability (U87-MG cells [4]): irreversible
